Experimental data: US9113629B2, “4-amino-6-(4-substituted-phenyl)-picolinates and 6-amino-2-(4-substituted-phenyl)-pyrimidine-4-carboxylates and their use as herbicides” (DOW AGROSCIENCES LLC, priority 2013, dated 2015)
Where two headings read alike, the source gives them in different places.

Columns and labels:
[1] = tested on: Key Broadleaf Weed and Crop Species; experiment: Post-emergent Test II herbicidal activity (Table 5); type: in vivo; settings: post-emergence, 336 h, 14 days after application; for pest or weed control at 70 g/ha: application rate 70 g ai/ha; for pest or weed control at 140 g/ha: application rate 140 g ai/ha
Method in brief: (§1)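 Percent injury, 0 (none) to 100 (complete kill), was judged visually 14 d after spraying young plants at the first or second true leaf stage with compound in an acetone/DMSO aqueous carrier at 187 L/ha. Plants were kept in a greenhouse at 23–29 °C by day.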

[2] = tested on: Key Grass and Sedge Weeds as well as Grass Crops; experiment: Post-emergent Test II herbicidal activity (Table 6); type: in vivo; settings: post-emergence, 336 h; for pest or weed control at 70 g/ha: 70 g ai/ha; for pest or weed control at 140 g/ha: 140 g ai/ha
Method in brief: as §1

[3] = ABUTH: velvetleaf (Abutilon theophrasti), read-out: Visual Growth Reduction (%) 14 Days After Application, ABUTH
[4] = AMARE: redroot pigweed (Amaranthus retroflexus), read-out: Visual Growth Reduction (%) 14 Days After Application, AMARE
[5] = BRSNN: oilseed-rape, canola (Brassica napus), read-out: Visual Growth Reduction (%) 14 Days After Application, BRSNN
[6] = CHEAL: lambsquarters (Chenopodium album), read-out: Visual Growth Reduction (%) 14 Days After Application, CHEAL
[7] = EPHHL: wild poinsettia (Euphorbia heterophylla), read-out: Visual Growth Reduction (%) 14 Days After Application, EPHHL
[8] = HELAN: sunflower (Helianthus annuus), read-out: Visual Growth Reduction (%) 14 Days After Application, HELAN
[9] = VIOTR: wild pansy (Viola tricolor), read-out: Visual Growth Reduction (%) 14 Days After Application, VIOTR
[10] = CYPES: yellow nutsedge (Cyperus esculentus), read-out: Visual Growth Reduction (%) 14 Days After Application, CYPES
[11] = DIGSA: crabgrass (Digitaria sanguinalis), read-out: Visual Growth Reduction (%) 14 Days After Application, DIGSA
[12] = ECHCG: barnyardgrass (Echinochloa crus-galli), read-out: Visual Growth Reduction (%) 14 Days After Application, ECHCG
[13] = ORYSA: rice (Oryza sativa), crop, read-out: Visual Growth Reduction (%) 14 Days After Application, ORYSA
[14] = SETFA: giant foxtail (Setaria faberi), read-out: Visual Growth Reduction (%) 14 Days After Application, SETFA
[15] = SORVU: grain sorghum (Sorghum vulgare), read-out: Visual Growth Reduction (%) 14 Days After Application, SORVU
[16] = TRZSS (wheat, Triticum aestivum), crop, read-out: Visual Growth Reduction (%) 14 Days After Application, TRZSS
[17] = ZEAMX: maize, corn (Zea mays), crop, read-out: Visual Growth Reduction (%) 14 Days After Application, ZEAMX

COC(=O)c1nc(-c2ccc(C(F)F)c(F)c2)cc(N)c1Cl [Compound 196]
0 to 29%: pest or weed control at 70 g/ha [1, 9] | pest or weed control at 140 g/ha [1, 9] | pest or weed control at 70 g/ha [2, 13] | pest or weed control at 140 g/ha [2, 13] | pest or weed control at 70 g/ha [2, 14] | pest or weed control at 140 g/ha [2, 14] | pest or weed control at 70 g/ha [2, 16] | pest or weed control at 140 g/ha [2, 16] | pest or weed control at 70 g/ha [2, 17]
45 to 59%: pest or weed control at 70 g/ha [2, 11] | pest or weed control at 140 g/ha [2, 11]
95 to 100%: pest or weed control at 70 g/ha [1, 3] | pest or weed control at 140 g/ha [1, 3] | pest or weed control at 70 g/ha [1, 4] | pest or weed control at 140 g/ha [1, 4] | pest or weed control at 70 g/ha [1, 6] | pest or weed control at 140 g/ha [1, 6] | pest or weed control at 70 g/ha [1, 7] | pest or weed control at 140 g/ha [1, 7] | pest or weed control at 70 g/ha [1, 8] | pest or weed control at 140 g/ha [1, 8] | pest or weed control at 70 g/ha [2, 12] | pest or weed control at 140 g/ha [2, 12]
85 to 94%: pest or weed control at 70 g/ha [2, 10] | pest or weed control at 140 g/ha [2, 10]
75 to 84%: pest or weed control at 70 g/ha [2, 15] | pest or weed control at 140 g/ha [2, 15] | pest or weed control at 140 g/ha [2, 17]
30 to 44%: pest or weed control at 70 g/ha [1, 5] | pest or weed control at 140 g/ha [1, 5]

COC(=O)c1nc(-c2ccccc2)c(F)c(N)c1Cl [Compound 181]
0 to 29%: pest or weed control at 70 g/ha [1, 9] | pest or weed control at 140 g/ha [1, 9] | pest or weed control at 70 g/ha [2, 11] | pest or weed control at 140 g/ha [2, 11] | pest or weed control at 70 g/ha [2, 12] | pest or weed control at 140 g/ha [2, 12] | pest or weed control at 70 g/ha [2, 13] | pest or weed control at 140 g/ha [2, 13] | pest or weed control at 70 g/ha [2, 14] | pest or weed control at 140 g/ha [2, 14] | pest or weed control at 70 g/ha [2, 15] | pest or weed control at 70 g/ha [2, 16] | pest or weed control at 140 g/ha [2, 16] | pest or weed control at 70 g/ha [2, 17]
85 to 94%: pest or weed control at 70 g/ha [1, 4] | pest or weed control at 70 g/ha [1, 5] | pest or weed control at 70 g/ha [1, 7]
30 to 44%: pest or weed control at 140 g/ha [2, 15] | pest or weed control at 140 g/ha [2, 17]
95 to 100%: pest or weed control at 70 g/ha [1, 3] | pest or weed control at 140 g/ha [1, 3] | pest or weed control at 140 g/ha [1, 4] | pest or weed control at 140 g/ha [1, 5] | pest or weed control at 70 g/ha [1, 6] | pest or weed control at 140 g/ha [1, 6] | pest or weed control at 140 g/ha [1, 7] | pest or weed control at 70 g/ha [1, 8] | pest or weed control at 140 g/ha [1, 8] | pest or weed control at 70 g/ha [2, 10] | pest or weed control at 140 g/ha [2, 10]
